# Experimental data from US7951928B2, “Gene encoding a protein and preventive/remedy for neurodegenerative diseases such as polyglutamine diseases by utilizing the same” (Tokyo Medical and Dental University, priority 2004, dated 2011).
# Legend:
# [1] = system: primary cultured cortical neurons; assay: Measurement of uptake of BrU (transcription) in AMA-treated cortical neurons; assay type: cell-based, rat; conditions: three different concentrations of AMA
# [2] = system: primary cultured cerebellar neurons; assay: Measurement of uptake of BrU (transcription) in AMA-treated cerebellar neurons; assay type: cell-based, rat; conditions: three different concentrations of AMA
# Experimental: (§1) First, solutions containing three different concentrations of AMA were added to culture media of Hela cells, primary cultured cortical neurons of rat embryo (E15), and primary cultured cerebellar neurons of rat. […] The AMA-induced cellular death was significant particularly in the primary cultured neurons and their half-life period was five days or more—the primary cultured neurons died obviously earlier than those that had not been treated with AMA. […] In this AMA-induced cellular death, neuronal cell death progressed very slowly as compared with low-potassium-induced apoptosis of cerebellar neurons.
# A cerebral cortical tissue segregated from E17 Wistar rat embryo and a cerebellar tissue segregated from P7 Wistar rat novelborn were shredded with a razor, and treated with a phosphate buffered saline (hereinafter referred to as “PBS”; pH 7.5) containing 0.25% trypsin (Gibco) at 37° C. for 20 min, with gentle shaking every 5 min. Subsequently, the reaction was quenched by replacing the PBS with DMEM containing a 50% fetal bovine serum (hereinafter referred to as “FBS”), and DNaseI (Boehringer Mannheim) was added to a final concentration of 100 μg/ml. The tissues were segregated gently by pipetting with a blue tip. […]
# [3] = system: primary cultured neurons; assay: AMA-induced cellular death of primary cultured neurons (Trypan Blue cellular death assay); assay type: cell-based, rat
# Experimental: as §1
# A cerebral cortical tissue segregated from E17 Wistar rat embryo and a cerebellar tissue segregated from P7 Wistar rat novelborn were shredded with a razor, and treated with a phosphate buffered saline (hereinafter referred to as “PBS”; pH 7.5) containing 0.25% trypsin (Gibco) at 37° C. for 20 min, with gentle shaking every 5 min. Subsequently, the reaction was quenched by replacing the PBS with DMEM containing a 50% fetal bovine serum (hereinafter referred to as “FBS”), and DNaseI (Boehringer Mannheim) was added to a final concentration of 100 μg/ml. The tissues were segregated gently by pipetting with a blue tip. The cells were filtrated through a nylon mesh (FALCON, pore size: […]) by centrifuge for precipatation and resuspended in DMEM additionally containing 20 mM glucose, 16 mM sodium hydrogen carbonate, 4 mM glutamine, 25 μg/ml gentamicin and 10% FBS. The suspension was added into a polylysine-coated 24-well plate (Corning) and the cells were cultured so that each well has 3×10^5 cells. After 12 hours, cytosine arabinoside was added to the culture wells to a final concentration of […] in order to prevent glial cell proliferation. […]
# The cells were treated for 5 min with 0.4% Trypan Blue solution (Invitrogen). […] In these spots the numbers of blue-stained cells (dead cells) and non-stained cells (living cells) were counted to a total of at least 2,000.
# [4] = system: Hela cells; assay: AMA-induced cellular death of Hela cells; assay type: cell-based; conditions: AMA-treated Hela cells
# Experimental: as §1
# The cells were treated for 5 min with 0.4% Trypan Blue solution (Invitrogen). In each experiment, 10-20 spots were randomly selected from each of the three dishes at 100× magnification. In these spots the numbers of blue-stained cells (dead cells) and non-stained cells (living cells) were counted to a total of at least 2,000.
# [5] = system: cell line and primary neurons; assay: Genome DNA analysis for DNA ladders after AMA treatment; assay type: cell-based; conditions: genome DNA analysis of the cell line and primary neurons after AMA treatment
# [6] = system: YAP; assay: Northern blotting of YAP expression after AMA; assay type: cell-based, rat; conditions: transcription stage
# Experimental: Next, in order to clarify the molecular mechanism underlying the OP (omega process), we performed microarray analysis. Expression of genes associated with AMA-induced cellular death of cortical neurons and cerebellar neurons and expression of genes associated with low-potassium-induced apoptosis of cerebellar neuron were compared. Experiment was performed twice for each type of cellular death. This microarray analysis led to the identification of 8 genes that offered different expression levels both in apoptosis and OP, and 11 genes that offered different expression levels specifically in OP. The latter set of genes contained YAP, a transcriptional activation factor (coactivator) which is known to play a key role in p73-mediated apoptosis.
# Ten micrograms of total RNA extracted from the primary cultured neurons was electrophoresed on a MOPS/formaldehyde gel. The separated RNA fragments were transferred and immobilized to Hybond-N (Pharmacia) by UV cross-linking (exposure dose=120,000 μJ/cm^2). The full-length cDNA with the 61nt insert was cleaved from pBSins61 and purified by passing it through a gel and labeled with [a32P]dCTP (Amersham) using Random Primer DNA-labeling kit (Takara). The probes labeled with 32P were reacted with a nylon film at 60° C. and allowed to stand overnight for permeation. […]
compound,measurement,setting,value
"CC[C@H](C)[C@@H]1NC(=O)CNC(=O)[C@@H]2Cc3c([nH]c4cc(O)ccc34)[S+]([O-])C[C@@H](NC(=O)CNC1=O)C(=O)N[C@@H](CC(N)=O)C(=O)N1C[C@H](O)C[C@H]1C(=O)N[C@@H]([C@@H](C)[C@@H](O)CO)C(=O)N2 (stereo in doubt) [AMA, α-amanitin]",transcription (uptake of BrU),[1],suppressed transcription
same,transcription (uptake of BrU),[2],suppressed transcription
same,concentration dependence of cellular death rate,[3]; AMA 10 μg/ml to 250 μg/ml,dependent on AMA concentration
same,cellular death (proportion of living cells),[3]; AMA-treated neurons,induces progressive cellular death
same,time before half the population of the neural cells died (half-life period),[3]; neuronal cells treated with α-amanitin,≥ 120 h
same,cellular death (proportion of living cells),[4],induces progressive cellular death
same,DNA ladders,[5],no DNA ladders were observed
same,YAP expression,[6],down-regulated YAP expression
